target: T1, human FPRL1 (Homo sapiens, UniProt P25090); assay: Measurement test of agonist activity on human FPRL1 (test of calcium mobilization in cell, HEK293 with human FPRL1 and Gα15 expression vectors); format: cell-based; conditions: calcium mobilization in HEK293 cells with human FPRL1 and Gα15 expression vectors
T1 construct: expressed in transfected cells; host or cells: HEK293 (JCRB9068, NIBIO), transient transfection with pCMV-script vectors using Lipofectamine 2000
T1 sequence (P25090 1-351): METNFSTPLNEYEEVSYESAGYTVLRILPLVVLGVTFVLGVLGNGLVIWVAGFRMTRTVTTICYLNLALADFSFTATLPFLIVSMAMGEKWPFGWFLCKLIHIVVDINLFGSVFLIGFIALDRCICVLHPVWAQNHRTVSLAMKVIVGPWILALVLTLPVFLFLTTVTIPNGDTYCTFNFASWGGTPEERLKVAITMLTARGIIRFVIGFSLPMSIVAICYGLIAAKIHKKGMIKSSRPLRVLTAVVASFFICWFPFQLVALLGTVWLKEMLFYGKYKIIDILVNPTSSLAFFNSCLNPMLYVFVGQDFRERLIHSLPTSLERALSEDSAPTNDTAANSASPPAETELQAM
Excerpt: Measurement Test of Agonist Activity on Human FPRL1
(1-1) Construction of Human FPRL1 Expression Vector
Human FPRL (SEQ ID NO: 3) was amplified in a PCR reaction from cDNA derived from a monocytic leukemia cell line THP-1 (TIB-202, ATCC) as a template using a forward primer shown in SEQ ID NO: 1, a reverse primer shown in SEQ ID NO: 2, and KOD-plus-ver. 2 (KOD-211, TOYOBO CO., LTD.). The amplified PCR product and pCMV-script vector (212220, STRATAGENE) were digested with Hind III (1060A, Takara Bio Inc.) and XhoI (1094A, Takara Bio Inc.), and the resultant digest was ligated with Ligation high ver. 2 (LGK-201, TOYOBO CO., LTD.). The ligation product was transformed into DH5α (DNA-901, TOYOBO CO., LTD.), cultured on a 100 μg/mL kanamycin-containing LB medium, and purified with HiSpeed Plasmid Maxi Kit (12662, QIAGEN).
(1-2) Construction of Human Gα15 Expression Vector
Human Gα15 (SEQ ID NO: 6) was amplified in a PCR reaction from cDNA derived from a myeloid leukemia cell line HL-60 (CCL-240, ATCC) as a template using a forward primer shown in SEQ ID NO: 4, a reverse primer shown in SEQ ID NO: 5, and KOD-plus-ver. 2. The amplified PCR product and pCMV-script vector were digested with Hind III and XhoI, and the resultant digest was ligated with Ligation high ver. 2. The ligation product was transformed into DH5α, cultured on a 100 μg/mL kanamycin-containing LB medium, and purified with HiSpeed Plasmid Maxi Kit.
(2-1) Method for Culturing and Subculturing HEK293
HEK293 (JCRB9068, NIBIO) was cultured in an incubator at 5% CO2 and 37° C. using DMEM (11885-092, GIBCO) containing 10% FBS and 1× Penicillin-Streptomycin (15140-122, GIBCO). Subculture was carried out as followings: The cells that reached 80 to 90% confluency were washed with PBS(−), separated using 0.25% Trypsin-EDTA (25200-072, GIBCO), centrifuged, re-suspended in a fresh medium, and then seeded in Collagen Type 1 Coated dish (4020-010, IWAKI) at a split ratio of 1:8 (cultured for 3 days).
(2-2) Introduction of Human FPRL1 and Gα15 Expression Vectors
HEK293 that reached 80 to 90% confluency was washed with PBS(−), separated using 0.25% Trypsin-EDTA, centrifuged, and re-suspended in a fresh medium excluding 1× Penicillin-Streptomycin. The cells were inoculated in a Collagen Type 1 coated 6-well plate (4810-010, IWAKI) to 5×10^5 cells/2.5 mL/well and cultured overnight. On the next day, human FPRL1 and Gα15 expression vectors were introduced using Lipofectamine 2000 transfection reagent (11668-019, Life technologies). First, the human FPRL1 and Gα15 expression vectors were diluted with Opti-MEM I Reduced Serum Medium (31985-070, GIBCO) to 2 μg/250 μL/well and Lipofectamine 2000 transfection reagent was diluted with Opti-MEM I Reduced Serum Medium to be 4 μL/250 μL/well. The vectors and reagent were softly diffused, and incubated at room temperature for 5 minutes. The vector solution was mixed with Lipofectamine 2000 transfection reagent in equal amounts. In order to form a composite of the vectors and Lipofectamine 2000 transfection reagent, the mixture was incubated at room temperature for 20 minutes, and added at 500 μL/well to the medium of inoculated cells. The treated cells were cultured for 24 hours, inoculated in Poly-D-Lysine coated 96-well plate (356640, BD Biosciences) at a cell density of 7×10^4 cells/100 μL/well, and cultured for another 24 hours. The resultant cells were used in a measurement test of calcium mobilization in the cells.
(3) Evaluation of Agonist Activity on Human FPRL1 (Test of Calcium Mobilization in Cell)
An appropriate amount of each test compound was first weighed, and dissolved to 10^−2 M by addition of dimethyl sulfoxide (DMSO). […]

Q: For COc1cc(F)c([C@@H]2CN(CCO)C(=O)[C@H]2NC(=O)Nc2ccc(C#N)cc2)c(F)c1 (relative stereo) [Example 24-8, (−)-1-(4-cyanophenyl)-3-[(3S*,4R*)-4-(2,6-difluoro-4-methoxyphenyl)-1-(2-hydroxyethyl)-2-oxopyrrolidin-3-yl]urea], which EC50 is on record?
A: Its EC50 is 0.39 nM.

Q: Which EC50 does the source give for COc1cc(F)c([C@@H]2CN/C(=N\OCCO)[C@H]2NC(=O)Nc2ccc(Cl)nc2)c(F)c1 (single isomer, unassigned) [EXAMPLE 32-14, (−)-1-(6-chloropyridin-3-yl)-3-{(3S*,4R*,Z)-4-(2,6-difluoro-4-methoxyphenyl)-2-[(2-hydroxyethoxy)imino]pyrrolidin-3-yl}urea] here?
A: The EC50 was 0.82 nM.

Q: Which EC50 does the source give for COc1ccc(NC(=O)N[C@@H]2C(=O)NC[C@H]2c2c(F)cc(OC)cc2F)cc1 (single isomer, unassigned) [EXAMPLE 1-24, (−)-1-[(3S*,4R*)-4-(2,6-difluoro-4-methoxyphenyl)-2-oxopyrrolidin-3-yl]-3-(4-methoxyphenyl)urea] here?
A: The EC50 was 3.2 nM.

Q: With C#Cc1ccc(NC(=O)N[C@@H]2C(=O)NC[C@H]2c2c(F)cc(OC)cc2F)cc1 (single isomer, unassigned) [EXAMPLE 28-4, (−)-1-[(3S*,4R*)-4-(2,6-Difluoro-4-methoxyphenyl)-2-oxopyrrolidin-3-yl]-3-(4-ethynylphenyl) urea] as the compound, how does the EC50 read?
A: The EC50 was 1.64 nM.

Q: With CCCN1C[C@@H](c2c(F)cc(OC)cc2F)[C@H](NC(=O)Nc2ccc(F)cc2)C1=O (relative stereo) [Example 24-11, (−)-1-[(3S*,4R*)-4-(2,6-difluoro-4-methoxyphenyl)-2-oxo-1-propylpyrrolidin-3-yl]-3-(4-fluorophenyl)urea] as the compound, how does the EC50 read?
A: Its EC50 is 0.06 nM.

Q: For CNC(=O)C(C)N1C[C@@H](c2ccc(OC)cc2)[C@H](NC(=O)Nc2ccc(F)cc2)C1=O (single isomer, unassigned; isomer a) [Example 19-1, (−)-2-{(3S*,4R*)-3-[3-(4-Fluorophenyl)ureido]-4-(4-methoxyphenyl)-2-oxopyrrolidin-1-yl}-N-methylpropionamide (isomer A)], which EC50 is on record?
A: The EC50 was 0.21 nM.

Q: How did the EC50 turn out when COc1cc(F)c([C@@H]2CNC(=O)[C@H]2NC(=O)Nc2cccc(F)c2)c(F)c1 (relative stereo) [Example 7-8, (−)-1-[(3S*,4R*)-4-(2,6-difluoro-4-methoxyphenyl)-2-oxopyrrolidin-3-yl]-3-(3-fluorophenyl)urea] was run?
A: Its EC50 is 0.95 nM.

Q: C/N=C1\NC[C@@H](c2c(F)cc(OC)cc2F)[C@@H]1NC(=O)Nc1ccc(F)cc1 (relative stereo) [EXAMPLE 32-6, 1-[(3S*,4R*,Z)-4-(2,6-difluoro-4-methoxyphenyl)-2-(methylimino)pyrrolidin-3-yl]-3-(4-fluorophenyl)urea] was tested. Which EC50 did it give?
A: Its EC50 is 0.37 nM.

Q: COc1cnc([C@@H]2CNC(=O)[C@H]2NC(=O)Nc2ccc(Cl)s2)c(F)c1 (relative stereo) [Example 8-2, (−)-1-(5-chlorothiophen-2-yl)-3-[(3S*,4R*)-4-(3-fluoro-5-methoxypyridin-2-yl)-2-oxopyrrolidin-3-yl]urea] was tested. Which EC50 did it give?
A: Its EC50 is 1.6 nM.

Q: CC(C)(C(=O)O)N1C[C@@H](c2cc3c(cc2F)OCC3)[C@H](NC(=O)Nc2ccc(F)cc2)C1=O (relative stereo) [Example 22-2, (−)-2-{(3S*,4R*)-4-(6-Fluoro-2,3-dihydrobenzofuran-5-yl)-3-[3-(4-fluorophenyl)ureido]-2-oxopyrrolidin-1-yl}-2-methylpropanoic acid] was tested. Which EC50 did it give?
A: The EC50 was 0.38 nM.

Q: Which EC50 does the source give for CO/N=C1\NC[C@@H](c2c(F)cc(OC)cc2F)[C@@H]1NC(=O)Nc1ccc(C#N)cc1 (single isomer, unassigned) [EXAMPLE 32-9, (−)-1-(4-cyanphenyl)-3-[(3S*,4R*,Z)-4-(2,6-difluoro-4-methoxyphenyl)-2-(methoxyimino)pyrrolidin-3-yl]urea] here?
A: Its EC50 is 0.3 nM.

Q: With COc1cc(F)c([C@@H]2CN(Cc3cccnc3)C(=O)[C@H]2NC(=O)Nc2ccc(F)cc2)c(F)c1 (relative stereo) [Example 24-13, (−)-1-[(3S*,4R*)-4-(2,6-difluoro-4-methoxyphenyl)-2-oxo-1-(pyridin-3-ylmethyl)pyrrolidin-3-yl]-3-(4-fluorophenyl)urea] as the compound, how does the EC50 read?
A: The EC50 was 0.11 nM.

Q: Which EC50 does the source give for CO/N=C1\NC[C@@H](c2c(F)cc(OC)cc2F)[C@@H]1NC(=O)Nc1ccc(Cl)nc1 (single isomer, unassigned) [EXAMPLE 32-10, (−)-1-(6-chloropyridin-3-yl)-3-[(3S*,4R*,Z)-4-(2,6-difluoro-4-methoxyphenyl)-2-(methoxyimino)pyrrolidin-3-yl]urea] here?
A: The EC50 was 0.53 nM.

Q: Which EC50 does the source give for COc1ccc([C@@H]2CNC(=O)[C@H]2NC(=O)Nc2ccc(F)cc2)cc1F (single isomer, unassigned) [EXAMPLE 1-8, (−)-1-[(3S*,4R*)-4-(3-fluoro-4-methoxyphenyl)-2-oxopyrrolidin-3-yl]-3-(4-fluorophenyl)urea] here?
A: The EC50 was 0.9 nM.

Q: COc1cc(F)c([C@@H]2CN(CCO)C(=O)[C@H]2NC(=O)Nc2cc3ccccc3s2)c(F)c1 (relative stereo) [Example 24-10, (−)-1-(benzo[b]thiophen-2-yl)-3-[(3S*,4R*)-4-(2,6-difluoro-4-methoxyphenyl)-1-(2-hydroxyethyl)-2-oxopyrrolidin-3-yl]urea] was tested. Which EC50 did it give?
A: The EC50 was 1 nM.

Q: How did the EC50 turn out when COc1c(F)cc([C@@H]2CNC(=O)[C@H]2NC(=O)Nc2ccc(F)cc2)cc1F (single isomer, unassigned) [EXAMPLE 1-14, (−)-1-[(3S*,4R*)-4-(3,5-difluoro-4-methoxyphenyl)-2-oxopyrrolidin-3-yl]-3-(4-fluorophenyl)urea] was run?
A: The EC50 was 4.12 nM.

Q: For COc1ccc([C@@H]2CN(CCO)C(=O)[C@H]2NC(=O)Nc2ccc(Cl)cc2)cc1 (single isomer, unassigned) [Example 15-1A, (−)-trans-1-(4-Chlorophenyl)-3-[1-(2-hydroxyethyl)-4-(4-methoxyphenyl)-2-oxopyrrolidin-3-yl]urea], which EC50 is on record?
A: The EC50 was 0.01 nM.

Q: How did the EC50 turn out when CNC(=O)C(C)N1C[C@@H](c2ccc(OC)cc2)[C@H](NC(=O)Nc2ccc(F)cc2)C1=O (single isomer, unassigned; isomer b) [Example 21-1, (−)-2-{(3S*,4R*)-3-[3-(4-Fluorophenyl)ureido]-4-(4-methoxyphenyl)-2-oxopyrrolidin-1-yl}-N-methylpropionamide (isomer B)] was run?
A: Its EC50 is 0.04 nM.

Q: How did the EC50 turn out when CSc1ccc([C@@H]2CNC(=O)[C@H]2NC(=O)Nc2ccc(F)cc2)cc1 (single isomer, unassigned) [EXAMPLE 1-20, (−)-1-(4-fluorophenyl)-3-[(3S*,4R*)-4-(4-methylthiophenyl)-2-oxopyrrolidin-3-yl]urea] was run?
A: The EC50 was 1.75 nM.

Q: For COc1cc(F)c([C@@H]2CN(C)C(=O)[C@H]2NC(=O)Nc2ccc(C#N)cc2)c(F)c1 (relative stereo) [Example 24-3], which EC50 is on record?
A: The EC50 was 1.1 nM.

— patent US9822069B2, “Urea derivative or pharmacologically acceptable salt thereof” (KYORIN PHARMACEUTICAL CO. LTD., priority 2013, dated 2017)
